Source: patent publication US20070027175A1, “Antineoplastic activities of ellipticine and its derivatives” (priority 2005, published 2007)
pIC50: −log10 of the molar value.

Tests used:
DNA strand breakage = conditions: Multon et al., 1989; cited from earlier work
8226/Dox1V cells = assay: Drug resistance and cytotoxicity MTT assay, 8226/Dox1V; format: cell-based, human
Method: (§1) FIGS. 13A-13B show dose response of RPMI 8226 and 8226/Dox1V myeloma cells to EPED3 (FIG. 13A) or Dox (FIG. 13B). Cells were incubated for 96 hours with drug concentrations as indicated and analyzed by MTT assays; linear regression analysis was used to determine the IC50 for each drug (EPED3, FIG. 13A; Dox, FIG. 13B) and each cell line (RPMI8226, squares; 8226/Dox1V, circles). Data are presented as the mean of four independent experiments.
The 8226/Dox1V cell line was established by chronic exposure to Dox in presence of P-glycoprotein inhibitor, verapamil and was characterized by reduced expression and activity of topo II (Futscher et al., 1993).
(§2) The 8226/Dox1V and its parental line, RPMI 8226, cells were plated in 96-well plates at 10,000 cells/well and incubated with serial dilutions of EPED3 or Dox, as previously described (Landowski et al., 1999). After 96 hours incubation at 37° C., MTT was added to each well at a final concentration of 20 μg/ml and incubated an additional 4 hours. Plates were centrifuged and the media replaced with 0.1 ml DMSO to solublize the formazan complex. Optical density was measured at 540 nm using a Bio-Tek microplate spectrophotometer. IC50 values were calculated by linear regression analysis (Origins® Software Technologies, Inc.) of the log-linear plot for percent survival versus log drug concentration.
In drug resistance studies, the efficacy of EPED3 with 8226/Dox1V cells and the parental line, RPMI 8226 cells was investigated. Both cell lines were treated with either EPED3 or Dox, and the MTT assays were used to assess cell growth. Linear regression analysis of 96-hour dose-response curves was used to compare cytotoxicity of EPED3 in 8226/Dox1V and RPMI 8226 cell lines.

RPMI 8226 cells = assay: Drug resistance and cytotoxicity MTT assay, RPMI 8226; format: cell-based, human; conditions: Homo sapiens, 96 hours
Method: as §1, §2
In drug resistance studies, the efficacy of EPED3 with 8226/Dox1V cells and the parental line, RPMI 8226 cells was investigated. Both cell lines were treated with either EPED3 or Dox, and the MTT assays were used to assess cell growth. […]

[1] = tested on: 12 myeloma cell lines (Ark, BW288, CAG, Delta47, DF15, JJN3, kms11, L363, opm2, RPMI8226, U266 and XG1); assay: Comparative study with existing anti-myeloma drugs (CellTiter-Glo); format: cell-based, human; conditions: 0.2 μM; in 5 days
Excerpt: The results obtained from these controls are pooled together in the figure (●). The dose of each compound was set […].
Comparative study of NSC 338258 with existing anti-myeloma drugs Myeloma cell lines were exposed to NSC 338258 and existing anti myeloma drugs, Adriamycin® (Doxorubicin Hydrochloride) and Etoposide (VP-16-213) in ninety six well culture plates. The concentration of each compound was set […]. […] The cell growth was near zero in the following days (day 4 onwards; FIG. 6). It was also observed that 12 myeloma cell lines (Ark, BW288, CAG, Delta47, DF15, JJN3, kms11, L363, opm2, RPMI8226, U266 and XG1) responded to the same dosage (0.2 μM) of NSC 338258, VP-16-213 and Adriamycin in 5 days.

CCN(CC)CC[n+]1ccc2c(C)c3[nH]c4ccc(O)cc4c3c(C)c2c1 [Detalliptinium]
potency in DNA strand breakage, times less than m-AMSA (DNA strand breakage): 50 times

Cc1c2cc[n+](C)cc2c(C)c2c1[nH]c1ccc(O)cc12 [Celiptium]
potency in DNA strand breakage, times less than m-AMSA (DNA strand breakage): 50 times

COc1cccc2c1C(=O)c1c(O)c3c(c(O)c1C2=O)C[C@@](O)(C(=O)CO)C[C@@H]3O[C@H]1C[C@H](N)[C@H](O)[C@H](C)O1 [Dox, Doxorubicin, reference compound]
pIC50 (8226/Dox1V cells; Homo sapiens, 8226/Dox1V, 96 hours): 6.53
resistance of 8226/Dox1V versus parental RPMI 8226 (8226/Dox1V cells; ratio of IC50, 96 hours): 7.3 fold
pIC50 (RPMI 8226 cells): 7.40
response of 12 myeloma cell lines [1]: responded
